The target in assay [1] is T1, Serine/threonine-protein kinase 36 (Homo sapiens) (UniProt Q9NRP7).
T1 sequence (whole entry): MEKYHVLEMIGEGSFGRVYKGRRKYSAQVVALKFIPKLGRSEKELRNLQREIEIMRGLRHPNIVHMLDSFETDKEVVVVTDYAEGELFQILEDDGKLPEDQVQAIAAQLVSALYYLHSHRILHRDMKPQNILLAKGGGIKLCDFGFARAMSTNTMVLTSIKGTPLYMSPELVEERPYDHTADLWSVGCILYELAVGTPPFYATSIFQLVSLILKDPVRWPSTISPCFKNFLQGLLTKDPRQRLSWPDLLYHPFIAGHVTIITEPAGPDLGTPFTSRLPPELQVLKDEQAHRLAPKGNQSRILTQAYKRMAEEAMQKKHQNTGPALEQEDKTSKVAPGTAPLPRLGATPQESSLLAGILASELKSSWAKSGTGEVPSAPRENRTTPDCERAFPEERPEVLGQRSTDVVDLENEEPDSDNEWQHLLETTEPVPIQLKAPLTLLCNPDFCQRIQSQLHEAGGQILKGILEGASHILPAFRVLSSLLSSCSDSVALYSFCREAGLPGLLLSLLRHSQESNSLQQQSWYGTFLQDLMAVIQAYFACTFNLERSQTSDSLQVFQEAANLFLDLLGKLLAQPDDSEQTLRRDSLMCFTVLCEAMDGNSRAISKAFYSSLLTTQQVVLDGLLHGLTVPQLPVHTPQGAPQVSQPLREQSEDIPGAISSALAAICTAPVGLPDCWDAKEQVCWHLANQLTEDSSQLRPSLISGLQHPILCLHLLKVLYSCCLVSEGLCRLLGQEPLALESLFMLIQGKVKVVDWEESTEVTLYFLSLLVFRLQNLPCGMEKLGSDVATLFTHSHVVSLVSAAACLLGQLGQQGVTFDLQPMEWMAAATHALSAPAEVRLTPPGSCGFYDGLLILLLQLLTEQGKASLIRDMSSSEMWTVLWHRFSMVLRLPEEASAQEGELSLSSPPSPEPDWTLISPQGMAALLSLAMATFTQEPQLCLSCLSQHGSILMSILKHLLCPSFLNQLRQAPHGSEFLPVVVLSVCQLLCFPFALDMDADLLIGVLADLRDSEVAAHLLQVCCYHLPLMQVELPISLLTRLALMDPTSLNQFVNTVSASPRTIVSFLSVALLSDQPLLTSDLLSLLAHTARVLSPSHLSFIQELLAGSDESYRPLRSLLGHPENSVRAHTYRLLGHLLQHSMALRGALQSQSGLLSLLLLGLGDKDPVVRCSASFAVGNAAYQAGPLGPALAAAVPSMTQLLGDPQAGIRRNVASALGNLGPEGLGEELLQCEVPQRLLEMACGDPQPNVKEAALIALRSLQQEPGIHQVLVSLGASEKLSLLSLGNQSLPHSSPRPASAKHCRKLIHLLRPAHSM
The assay is described as follows: Selectivity interaction (KinomeScan (DiscoverX)) EUB0000607a STK36. Particulars: at 10 µM.

In assay [2] the target is Casein kinase I isoform delta (Homo sapiens, UniProt P48730). Particulars: at 10 µM.
In assay [3] the target is T2, MAP kinase-activated protein kinase 5 (Homo sapiens) (UniProt Q8IW41).
T2 sequence (whole entry): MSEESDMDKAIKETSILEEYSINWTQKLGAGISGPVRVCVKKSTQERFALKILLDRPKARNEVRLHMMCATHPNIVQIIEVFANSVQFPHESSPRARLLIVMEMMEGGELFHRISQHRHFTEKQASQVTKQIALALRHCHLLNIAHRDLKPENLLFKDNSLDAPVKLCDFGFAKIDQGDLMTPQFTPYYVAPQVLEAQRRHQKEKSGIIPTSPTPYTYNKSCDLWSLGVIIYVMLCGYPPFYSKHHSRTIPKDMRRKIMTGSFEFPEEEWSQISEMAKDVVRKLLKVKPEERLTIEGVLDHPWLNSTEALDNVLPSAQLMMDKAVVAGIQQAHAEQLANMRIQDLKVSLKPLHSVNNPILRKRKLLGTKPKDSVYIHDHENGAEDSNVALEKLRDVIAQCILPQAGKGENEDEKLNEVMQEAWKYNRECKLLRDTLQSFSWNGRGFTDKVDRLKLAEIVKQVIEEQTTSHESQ
The assay is described as follows: Selectivity interaction (KinomeScan (DiscoverX)) EUB0001619a MAPKAPK5. Particulars: at 1 µM.

In a further assay the target is SRSF protein kinase 1 (Homo sapiens, UniProt Q96SB4). As to the kind of experiment: Selectivity interaction (ActivX KiNativ screen (kinase selectivity in THP-1 cell lysates)) EUB0000639a SRPK1. The assay is classed as subcellular. Particulars: lysate, at 0.01 µM.
Assay [4] deals with Protein-tyrosine kinase 2-beta (Homo sapiens) (UniProt Q14289). As to the kind of experiment: Selectivity interaction (ActivX KiNativ screen (kinase selectivity in THP-1 cell lysates)) EUB0000639a PTK2B. Particulars: lysate. The assay is classed as subcellular.
The target of assay [5] is Dual specificity protein kinase CLK3 (Homo sapiens, UniProt P49761). Particulars: at 10 µM.
Assay [6] addresses MAP kinase-activated protein kinase 2 (Homo sapiens, UniProt P49137). As to the kind of experiment: Selectivity interaction (KinomeScan (DiscoverX)) EUB0000695a MAPKAPK2. Particulars: at 100 nM.
The target of assay [7] is T3, Phosphorylase b kinase gamma catalytic chain, liver/testis isoform (Homo sapiens) (UniProt P15735).
T3 sequence (whole entry): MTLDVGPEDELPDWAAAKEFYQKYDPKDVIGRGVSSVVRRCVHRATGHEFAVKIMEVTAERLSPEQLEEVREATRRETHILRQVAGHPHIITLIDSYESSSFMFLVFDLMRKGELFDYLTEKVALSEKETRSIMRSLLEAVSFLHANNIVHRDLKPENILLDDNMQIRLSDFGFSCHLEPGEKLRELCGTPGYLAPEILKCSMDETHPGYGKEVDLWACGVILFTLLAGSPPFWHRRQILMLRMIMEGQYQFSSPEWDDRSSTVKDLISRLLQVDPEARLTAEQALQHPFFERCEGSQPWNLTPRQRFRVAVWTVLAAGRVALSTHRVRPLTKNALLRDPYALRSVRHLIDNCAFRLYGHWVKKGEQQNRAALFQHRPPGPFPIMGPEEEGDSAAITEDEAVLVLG
As to the kind of experiment: Selectivity interaction (KinomeScan (DiscoverX)) EUB0000695a PHKG2. Particulars: at 100 nM.

The target of assay [8] is Serine/threonine-protein kinase PLK2 (Homo sapiens, UniProt Q9NYY3). As to the kind of experiment: Selectivity interaction (KinomeScan (DiscoverX)) EUB0000092b PLK2. Particulars: at 10 µM.
Assay [9] in a line: Selectivity interaction (KinomeScan (DiscoverX)) EUB0000045b CDPK1. Particulars: at 10 µM.

Protein-tyrosine kinase 2-beta (Homo sapiens), sequence (Q14289 whole entry, looked up): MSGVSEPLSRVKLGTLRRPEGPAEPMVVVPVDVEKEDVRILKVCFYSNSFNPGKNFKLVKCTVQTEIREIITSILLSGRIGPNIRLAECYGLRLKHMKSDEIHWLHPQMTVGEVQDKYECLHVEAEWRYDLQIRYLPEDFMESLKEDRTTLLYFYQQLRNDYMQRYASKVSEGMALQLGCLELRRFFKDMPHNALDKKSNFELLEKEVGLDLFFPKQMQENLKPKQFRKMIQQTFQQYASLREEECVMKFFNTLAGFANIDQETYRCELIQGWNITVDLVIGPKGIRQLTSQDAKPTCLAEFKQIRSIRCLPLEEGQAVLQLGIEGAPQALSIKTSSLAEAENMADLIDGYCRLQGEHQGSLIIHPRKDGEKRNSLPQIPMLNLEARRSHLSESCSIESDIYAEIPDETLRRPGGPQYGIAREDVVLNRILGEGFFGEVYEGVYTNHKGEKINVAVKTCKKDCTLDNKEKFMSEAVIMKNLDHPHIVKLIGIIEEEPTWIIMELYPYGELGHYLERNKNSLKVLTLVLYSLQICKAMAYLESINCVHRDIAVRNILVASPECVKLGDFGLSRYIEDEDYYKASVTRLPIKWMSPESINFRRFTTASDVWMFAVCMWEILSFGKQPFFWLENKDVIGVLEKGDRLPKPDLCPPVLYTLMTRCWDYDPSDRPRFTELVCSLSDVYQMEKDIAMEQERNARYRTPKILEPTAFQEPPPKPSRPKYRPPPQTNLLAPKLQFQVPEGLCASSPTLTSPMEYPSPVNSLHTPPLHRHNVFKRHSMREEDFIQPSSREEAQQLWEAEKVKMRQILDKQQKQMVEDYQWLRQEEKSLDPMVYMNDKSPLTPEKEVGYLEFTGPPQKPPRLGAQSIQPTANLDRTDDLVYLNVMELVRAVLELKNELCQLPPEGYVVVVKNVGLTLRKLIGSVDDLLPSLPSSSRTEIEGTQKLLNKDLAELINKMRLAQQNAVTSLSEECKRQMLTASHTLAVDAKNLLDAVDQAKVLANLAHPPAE
Dual specificity protein kinase CLK3, sequence (P49761 whole entry, looked up): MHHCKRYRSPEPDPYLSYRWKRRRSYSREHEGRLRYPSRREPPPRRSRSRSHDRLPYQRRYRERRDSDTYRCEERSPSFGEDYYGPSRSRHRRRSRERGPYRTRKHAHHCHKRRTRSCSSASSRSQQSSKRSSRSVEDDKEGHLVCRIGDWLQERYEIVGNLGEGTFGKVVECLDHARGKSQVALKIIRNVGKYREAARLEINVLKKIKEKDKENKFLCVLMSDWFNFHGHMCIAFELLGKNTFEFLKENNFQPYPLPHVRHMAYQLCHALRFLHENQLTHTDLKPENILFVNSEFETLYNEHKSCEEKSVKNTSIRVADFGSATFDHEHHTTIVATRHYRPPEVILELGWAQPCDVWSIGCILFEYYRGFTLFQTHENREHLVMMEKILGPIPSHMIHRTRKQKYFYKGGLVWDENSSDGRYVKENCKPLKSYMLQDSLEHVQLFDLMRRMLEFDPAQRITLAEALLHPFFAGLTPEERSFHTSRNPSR
MAP kinase-activated protein kinase 2, sequence (P49137 whole entry, looked up, canonical isoform): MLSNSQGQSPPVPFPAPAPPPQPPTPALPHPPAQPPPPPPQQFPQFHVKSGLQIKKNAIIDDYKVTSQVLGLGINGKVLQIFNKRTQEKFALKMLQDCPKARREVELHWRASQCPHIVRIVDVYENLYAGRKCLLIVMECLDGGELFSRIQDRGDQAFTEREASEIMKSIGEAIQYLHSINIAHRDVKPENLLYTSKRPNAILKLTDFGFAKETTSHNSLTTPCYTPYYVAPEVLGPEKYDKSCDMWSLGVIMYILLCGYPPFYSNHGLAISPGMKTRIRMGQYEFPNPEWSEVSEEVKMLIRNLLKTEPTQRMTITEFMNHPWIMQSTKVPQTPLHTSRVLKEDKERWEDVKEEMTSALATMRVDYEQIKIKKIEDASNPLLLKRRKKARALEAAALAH
Casein kinase I isoform delta, sequence (P48730 whole entry, looked up, canonical isoform): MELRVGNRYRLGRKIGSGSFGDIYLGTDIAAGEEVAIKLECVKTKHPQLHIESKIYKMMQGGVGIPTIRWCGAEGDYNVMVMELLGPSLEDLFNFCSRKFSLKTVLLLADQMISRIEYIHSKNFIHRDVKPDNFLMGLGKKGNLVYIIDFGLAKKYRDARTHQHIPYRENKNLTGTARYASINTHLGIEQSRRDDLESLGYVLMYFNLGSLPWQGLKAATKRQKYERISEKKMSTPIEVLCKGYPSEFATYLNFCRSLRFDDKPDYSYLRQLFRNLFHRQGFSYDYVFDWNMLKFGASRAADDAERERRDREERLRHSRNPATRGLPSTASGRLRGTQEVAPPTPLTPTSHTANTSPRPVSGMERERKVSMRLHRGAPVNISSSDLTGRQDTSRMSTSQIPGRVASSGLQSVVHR
SRSF protein kinase 1, sequence (Q96SB4 whole entry): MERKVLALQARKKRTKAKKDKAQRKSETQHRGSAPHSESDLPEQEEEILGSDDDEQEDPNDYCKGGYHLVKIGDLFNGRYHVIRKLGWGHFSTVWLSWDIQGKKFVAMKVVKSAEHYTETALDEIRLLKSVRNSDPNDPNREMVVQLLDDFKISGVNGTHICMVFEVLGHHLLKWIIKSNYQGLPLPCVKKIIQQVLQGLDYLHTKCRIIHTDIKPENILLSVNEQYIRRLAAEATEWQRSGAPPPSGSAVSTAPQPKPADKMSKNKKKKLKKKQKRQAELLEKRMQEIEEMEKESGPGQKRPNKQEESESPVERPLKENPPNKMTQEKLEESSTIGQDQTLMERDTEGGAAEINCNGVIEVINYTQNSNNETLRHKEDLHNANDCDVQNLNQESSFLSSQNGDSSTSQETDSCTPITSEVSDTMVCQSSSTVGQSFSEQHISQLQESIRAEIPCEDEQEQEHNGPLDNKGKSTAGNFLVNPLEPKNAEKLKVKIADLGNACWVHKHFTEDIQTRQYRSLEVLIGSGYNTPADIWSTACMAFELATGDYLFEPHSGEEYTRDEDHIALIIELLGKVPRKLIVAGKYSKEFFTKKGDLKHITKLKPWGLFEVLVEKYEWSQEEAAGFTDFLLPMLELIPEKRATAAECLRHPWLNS
Serine/threonine-protein kinase PLK2, sequence (Q9NYY3 whole entry, looked up): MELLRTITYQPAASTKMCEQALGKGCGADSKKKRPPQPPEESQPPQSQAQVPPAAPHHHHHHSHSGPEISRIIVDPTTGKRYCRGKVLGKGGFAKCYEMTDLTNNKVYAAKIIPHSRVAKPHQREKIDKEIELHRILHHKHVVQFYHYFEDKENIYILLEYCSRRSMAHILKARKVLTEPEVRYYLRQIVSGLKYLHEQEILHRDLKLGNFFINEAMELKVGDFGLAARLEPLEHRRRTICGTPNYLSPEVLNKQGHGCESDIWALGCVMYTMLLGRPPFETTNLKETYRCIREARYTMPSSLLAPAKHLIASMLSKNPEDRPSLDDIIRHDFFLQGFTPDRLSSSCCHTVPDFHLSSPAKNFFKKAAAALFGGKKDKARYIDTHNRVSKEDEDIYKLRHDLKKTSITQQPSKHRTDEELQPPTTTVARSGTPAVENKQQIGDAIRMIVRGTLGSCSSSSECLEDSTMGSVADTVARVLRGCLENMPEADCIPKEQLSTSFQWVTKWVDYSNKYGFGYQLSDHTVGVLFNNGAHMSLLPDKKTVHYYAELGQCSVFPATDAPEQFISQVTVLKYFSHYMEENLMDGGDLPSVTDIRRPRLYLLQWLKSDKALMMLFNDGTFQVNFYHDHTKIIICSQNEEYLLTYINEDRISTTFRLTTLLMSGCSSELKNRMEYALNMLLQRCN

Molecule `CNC(=O)Nc1ccc(-c2nc(N3CC4CCC(C3)O4)c3cnn(C4CCC5(CC4)OCCO5)c3n2)cc1` registered a % of control in [1] of 96%.

In turn, `Cc1cc([C@@H](C)Nc2ccccc2C(=O)O)c2nc(N3CCOCC3)cc(=O)n2c1` [AZD-6482] gave a % of control in assay [2] of 86%.

In assay [3], `N#Cc1cccc(-c2c[nH]c3ncnc(N4CCOCC4)c23)c1` registered a % of control of 100%.

Consider `CC[C@@H]1[C@H](F)C(=O)N[C@@H]1COc1nccc2cc(C(N)=O)c(OC)cc12` [ZIMLOVISERTIB], for which the % of inhibition is -7.7% on SRSF protein kinase 1; -13.4% in [4] (at 0.01 µM); 9.7% in assay [4] (at 0.04 µM); -2.6% in [4] (at 0.2 µM); -0.1% in assay [4] (at 1 µM); -10.1% in assay [4] (at 5 µM).

`CCN(CC)CCCCNc1ncc2cc(-c3cc(OC)cc(OC)c3)c(NC(=O)NC(C)(C)C)nc2n1`: the % of control in assay [5] is 100%.

`Cc1cc(F)c(C(=O)Nc2cccc(-c3nncn3C(C)C)n2)cc1-n1cnc(C2CC2)c1`: the results for the % of control in [6] and in [7] were 57% and 85%, respectively.

Molecule `CCC(=O)N1CCN(c2ccc(-n3c(=O)ccc4cnc5ccc(-c6cnc7ccccc7c6)cc5c43)cc2C(F)(F)F)CC1` yielded a % of control in assay [8] of 85%.

For `C=CC(=O)Nc1cc(-n2c(=O)ccc3cnc4ccc(-c5ccc(NS(C)(=O)=O)cc5)cc4c32)ccc1C`, the % of control in [9] stood at 100%.

These data come from ChEMBL document CHEMBL5465560, “Selectivity Literature for EUbOPEN Chemogenomic Library” (2024).
